Columns and labels:
[1] = tested on: C57BL/6J mice with alkali corneal injury; experiment: Central corneal nerve density (β-tubulin III stained flat-mounts); assay type: in vivo, mouse; settings: 3 weeks post injury; low dose 50 μg/ml; normal control 0.43±0.05
Procedure: (§1) Mice were separated into 7 treatment groups with 10 mice per group (5 male, 5 female); high dose pergolide (600 μg/ml), medium dose pergolide (300 μg/ml), low dose pergolide (50 μg/ml), vehicle (solution only), NGF (100 μg/ml), naïve (injury and no treatment), and normal (no injury and no treatment). Preparation of pergolide and vehicle groups were done with Marinosolv® (Marinomed, Hovengasse, Korneuburg, AT) as described in (Siegl 2019 and Zhang 2020). Recombinant mouse NGF (R&D Systems, Minneapolis, MN, US) was prepared by dissolution in 1× phosphate-buffered saline (PBS). Both solutions were stored at 4 C according to the manufacturer's guidelines.
Mice were confirmed to have normal corneas prior to starting the study. Alkali corneal injury was done on one eye of each mouse for all groups excluding the normal group, in accordance with an established mouse model (Cho J 2019). […] Mice were placed on a water heating pad, monitored until fully awake, then returned to their cage. […]
(§2) Flat-mounts of mouse corneas were prepared and corneal nerve density was analyzed as previously described (N=6; 3 male, 3 female) (Zhang 2020) (FIG. 3A). […]
(§3) EVOS fluorescence microscope (Life Technologies, Carlsbad, CA, US) was used to create reconstructed whole-mount images and take images at the basal epithelial level in the central area of the injury. […]

[2] = Change in mouse weight, baseline to 3 weeks post-injury; assay type: in vivo; settings: medium dose 300 μg/ml group
Procedure: (§4) Change in mouse weight was compared from baseline to 3 weeks post-injury, and weight in the pergolide groups was compared to the non-pergolide groups (N=10; 5 male, 5 female). Following euthanasia, the heart and eyes were removed from the high dose pergolide and vehicle groups and histopathology was assessed using previously described protocols.

[3] = tested on: C57BL/6J mice with alkali corneal injury; experiment: Limbal nerve density (β-tubulin III stained flat-mounts); assay type: in vivo, mouse; settings: 3 weeks post injury, normal control 0.37±0.09
Procedure: as §1
(§5) Mice were confirmed to have normal corneas prior to starting the study. Alkali corneal injury was done on one eye of each mouse for all groups excluding the normal group, in accordance with an established mouse model (Cho J 2019). Alkali-based injury was chosen as it is one of the most common chemical injuries to the eye (Dua 2020). […] A 2 mm diameter filter paper disc was soaked in sodium hydroxide (0.75 M) then applied centrally on the cornea for 10 seconds. The disc was then removed and the ocular surface immediately irrigated with 10 ml of balanced sodium salts. The corneal surface was then lightly rubbed with the smooth side of forceps and irrigated in the same manner. None of the mice had eyelid or conjunctiva involvement of the injury. Erythromycin ointment (Perrigo, Dublin, IE) was then applied to the exterior of both eyes. Mice were placed on a water heating pad, monitored until fully awake, then returned to their cage. […]
as §2, §3

[4] = tested on: C57BL/6J mice with alkali corneal injury; experiment: Wiping test (ocular pain behavior) after corneal alkali injury; assay type: in vivo, mouse; settings: females; for wiping (eye wipes, week minus baseline): week 2 post-injury, heightened vs week 1
Procedure: Seventy (35 male, 35 female) C57BL/6J mice (The Jackson Laboratory, Maine, US) were utilized (FIG. 1A). Mice were kept in a 12 hour light/12 hour dark cycle in groups of 5 with food and water ad libitum. Differences between males and females were assessed.
as §1
Mice were confirmed to have normal corneas prior to starting the study. Alkali corneal injury was done on one eye of each mouse for all groups excluding the normal group, in accordance with an established mouse model (Cho J 2019). Alkali-based injury was chosen as it is one of the most common chemical injuries to the eye (Dua 2020). […] A 2 mm diameter filter paper disc was soaked in sodium hydroxide (0.75 M) then applied centrally on the cornea for 10 seconds. The disc was then removed and the ocular surface immediately irrigated with 10 ml of balanced sodium salts. The corneal surface was then lightly rubbed with the smooth side of forceps and irrigated in the same manner. None of the mice had eyelid or conjunctiva involvement of the injury. Erythromycin ointment (Perrigo, Dublin, IE) was then applied to the exterior of both eyes. Mice were placed on a water heating pad, monitored until fully awake, then returned to their cage.
All groups except the no treatment groups received their respective eye drops (10 μl per eye drop) three times daily (5 out of 7 days each week) in the injured eye for 3 weeks following injury. Mice were held for 10 seconds with the eye drop on their eye before being returned to their cage. Mice were sacrificed by cervical dislocation after week 3.
Wiping test was chosen to assess ocular pain behavior and was done once weekly (at the same time), in accordance with previously established protocols (N=10; 5 male, 5 female) (Tashiro et al. 2010, Cho J et al. 2019). Testing was performed in a clear open-top cylinder surrounded by 2 mirrors and a video recorder in front of the cylinder. Mice were habituated to the cylinder prior to the start of the study. The test consisted of applying 10 μl of sodium chloride (2 M) to the surface of the study cornea for 10 seconds, blotting excess away, then recording the mouse in the cylinder for 30 seconds. […] A different pipette tip was used for each mouse. Sudden movements and loud noises were avoided during testing so as to not distract the subjects. An eye wipe was defined as a purposeful wipe by the ipsilateral forelimb across the eye or resulting in eye closure. Cage changes were not done within 3 days of each test, and when cage changes occurred it happened for each group simultaneously. Eye wiping was assessed at baseline (3 days prior to injury) and on post-injury weeks 1, 2, and 3.

[5] = tested on: C57BL/6J mice; experiment: Histopathology of heart, retina, liver and kidney after topical treatment; assay type: in vivo, mouse; settings: high, medium, and low dose topical eye drops for 3 weeks
Procedure: as §4
In brief, after excision, hearts, livers, and kidneys were fixed in formalin for 24 hours then embedded in paraffin and cut in the coronal and transverse planes (N=4; 2 male, 2 female) (Droogmans 2007 & 2009). Eyes were fixed in Davidson's solution for 24 hours then placed in 70% ethanol and processed prior then embedded in paraffin and cut in the sagittal plane (N=4; 2 male, 2 female) (Chidlow 2011). Hematoxylin and eosin were used to stain the slides (Cardiff 2014), then the EVOS fluorescence microscope was used to capture images.

[6] = tested on: C57BL/6J mice with alkali corneal injury; experiment: Corneal haze grading (Roper-Hall classification) after corneal alkali injury; assay type: in vivo, mouse; settings: 3 weeks post injury; medium dose 300 μg/ml; grade 0-4; naïve group 3.3±0.8
Procedure: as §1
as §5, with “The corneal surface was then lightly rubbed with the smooth side of forceps and irrigated in the same manner. None of the mice had eyelid or conjunctiva involvement of the injury. Erythromycin ointment (Perrigo, Dublin, IE) was then applied to the exterior of both eyes.” left out

[7] = medium dose 300 μg/ml eye drops

| retina, liver and kidney morphology [5] | Molecule | central corneal nerve density (proportion of area with β-tubulin III staining) [1] | minor weight loss of one mouse, of initial body weight [2] | limbal nerve density ([3]; high dose 600 μg/ml) | limbal nerve density ([3]; medium dose 300 μg/ml) | wiping (eye wipes, week minus baseline) ([4]; high dose 600 μg/ml eye drops) | wiping (eye wipes, week minus baseline) [4, 7] | wiping at week 3 compared to week 2 ([4]; high dose 600 μg/ml eye drops) | wiping at week 3 compared to week 2 [4, 7] | heart histopathology ([5]; compared to the vehicle group) | corneal haze grade [6] | limbal nerve density ([3]; 100 μg/ml) | wiping (eye wipes, week minus baseline) ([4]; 100 μg/ml eye drops) | wiping at week 3 compared to week 2 ([4]; 100 μg/ml eye drops) |
| --- | --- | --- | --- | --- | --- | --- | --- | --- | --- | --- | --- | --- | --- | --- |
| did not show abnormal morphology | CCCN1C[C@H](CSC)C[C@@H]2c3cccc4[nH]cc(c34)C[C@H]21 [pergolide] | 0.10±0.03 | about 1% | 0.35±0.11 | 0.34±0.08 | 7.0±5.8 wipes | 6.2±5.5 wipes | decreased | decreased | did not show presence of valvular fibrosis, glycosaminoglycans deposits/myxoid changes, chondroid metaplasia, or other abnormal pathology | 2.2±1.1 | – | – | – |
| – | NGF: Recombinant mouse NGF (R&D Systems) dissolved in 1× PBS, 100 μg/ml eye drops; positive control (protein, UniProt P01139 122-241, looked up) Beta-nerve growth factor: SSTHPVFHMGEFSVCDSVSVWVGDKTTATDIKGKEVTVLAEVNINNSVFRQYFFETKCRASNPVESGCRGIDSKHWNSYCTTTHTFVKALTTDEKQAAWRFIRIDTACVCVLSRKATRRG | – | – | – | – | – | – | – | – | – | – | 0.36±0.08 | 4.6±5.1 wipes | decreased |
